Where two headings read alike, the source gives them in different places.
Assays:
[1] = tested on: Acinetobacter baumannii (12 strains); assay: MIC range, broader panel of Quotient Bioresearch strains (Table 4); assay type: cell-based; conditions: for MIC50: read-out: MIC Range Median, Acinetobacter baumannii (12 strains)
[2] = tested on: Acinetobacter baumannii, quinolone-resistant strains (Quotient Bioresearch catalogue); assay: MIC against pathogens resistant against quinolones (Table 5); assay type: cell-based; conditions: Acinetobacter baumannii, GN54
[3] = tested on: Staphylococcus aureus (16 strains); assay: MIC range, broader panel of Quotient Bioresearch strains (Table 3); conditions: for MIC50: read-out: MIC Range Median, Staphylococcus aureus (16 strains)
[4] = tested on: Enterococcus faecalis (5 strains); assay: as above; conditions: for MIC50: read-out: MIC Range Median, Enterococcus faecalis (5 strains)
[5] = tested on: Burkholderia cepacia (5 strains); assay: MIC range, broader panel of Quotient Bioresearch strains (Table 4); assay type: cell-based; conditions: for MIC50: read-out: MIC Range Median, Burkholderia cepacia (5 strains)
[6] = tested on: Escherichia coli (6 strains); assay: as above; assay type: cell-based; conditions: for MIC50: read-out: MIC Range Median, Escherichia coli (6 strains)
[7] = tested on: Streptococcus pneumonia (5 strains); assay: MIC range, broader panel of Quotient Bioresearch strains (Table 3); conditions: Streptococcus pneumoniae; for MIC: read-out: MIC Range Low, Streptococcus pneumonia (5 strains); for MIC50: read-out: MIC Range Median, Streptococcus pneumonia (5 strains)
bacterial gyrase = bacterial gyrase (Escherichia coli, UniProt P0AES4+P0AES6); assay: Inhibition of topoisomerases activity in vitro, Topogen protocol TG1003 (Table 7); assay type: biochemical
[8] = tested on: Haemophilus influenza (5 strains); assay: MIC range, broader panel of Quotient Bioresearch strains (Table 4); assay type: cell-based, Haemophilus influenzae; conditions: for MIC50: 16 h, Median of the strain panel
[9] = tested on: Bacterial strains injected into thigh muscles; assay type: in vivo, mice
[10] = target: bacterial topoisomerase IV (Escherichia coli, UniProt P0AFI2+P20083); assay: Inhibition of topoisomerases activity in vitro, Topogen protocol TG1007 (Table 7); assay type: biochemical
[11] = tested on: Group C Streptococcus (4 strains); assay: MIC range, broader panel of Quotient Bioresearch strains (Table 3); conditions: for MIC50: read-out: MIC Range Median, Group C Streptococcus (4 strains)
[12] = tested on: Streptococcus pyogenes (4 strains); assay: as above; conditions: for MIC50: read-out: MIC Range Median, Streptococcus pyogenes (4 strains)
[13] = Metabolic stability in liver microsomes +/- S9 fraction (Table 8); assay type: in vitro ADME; conditions: 1 μM
Method: Metabolic stability of a select number of examples was tested in liver microsomes+/−addition of S9 fraction as described by Kuhnz, W. and Gieschen, H. (1998), Drug Metab. Dispos., 1120-1127. Test concentration was 1 μM and HPLC/MS-MS was used for detection.

[14] = tested on: Pseudomonas aeruginosa (12 strains); assay: MIC range, broader panel of Quotient Bioresearch strains (Table 4); assay type: cell-based; conditions: for MIC50: read-out: MIC Range Median, Pseudomonas aeruginosa (12 strains)
physchem = assay type: physicochemical; conditions: thermodynamic from solid
Method: The solutions were incubated at room temperature for 24 hours before quantification by HPLC detection. Aqueous solubility was evaluated in simulated gastric fluid (SGF), simulated intestinal fluid (SIF) and phosphate buffer saline (PBS) pH 7.4. Aqueous solubility is expressed in Table 11 as mean solubility in μM.

[15] = tested on: Klebsiella pneumonia (4 strains); assay: MIC range, broader panel of Quotient Bioresearch strains (Table 4); assay type: cell-based; conditions: Klebsiella pneumoniae; for MIC50: read-out: MIC Range Median, Klebsiella pneumonia (4 strains)
[16] = tested on: Enterococcus faecium (3 strains); assay: MIC range, broader panel of Quotient Bioresearch strains (Table 3); conditions: for MIC: read-out: MIC Range Low, Enterococcus faecium (3 strains); for MIC50: read-out: MIC Range Median, Enterococcus faecium (3 strains)
human topoisomerase I = target: T1, human topoisomerase I (Homo sapiens, UniProt P11387); assay: Inhibition of topoisomerases activity in vitro, Topogen protocol TG1015 (Table 7); assay type: biochemical; conditions: read-out: IC50 hTopo I Assay
T1 construct: purchased Topogen Inc., Port Orange, USA TG1015
T1 sequence (P11387 1-765): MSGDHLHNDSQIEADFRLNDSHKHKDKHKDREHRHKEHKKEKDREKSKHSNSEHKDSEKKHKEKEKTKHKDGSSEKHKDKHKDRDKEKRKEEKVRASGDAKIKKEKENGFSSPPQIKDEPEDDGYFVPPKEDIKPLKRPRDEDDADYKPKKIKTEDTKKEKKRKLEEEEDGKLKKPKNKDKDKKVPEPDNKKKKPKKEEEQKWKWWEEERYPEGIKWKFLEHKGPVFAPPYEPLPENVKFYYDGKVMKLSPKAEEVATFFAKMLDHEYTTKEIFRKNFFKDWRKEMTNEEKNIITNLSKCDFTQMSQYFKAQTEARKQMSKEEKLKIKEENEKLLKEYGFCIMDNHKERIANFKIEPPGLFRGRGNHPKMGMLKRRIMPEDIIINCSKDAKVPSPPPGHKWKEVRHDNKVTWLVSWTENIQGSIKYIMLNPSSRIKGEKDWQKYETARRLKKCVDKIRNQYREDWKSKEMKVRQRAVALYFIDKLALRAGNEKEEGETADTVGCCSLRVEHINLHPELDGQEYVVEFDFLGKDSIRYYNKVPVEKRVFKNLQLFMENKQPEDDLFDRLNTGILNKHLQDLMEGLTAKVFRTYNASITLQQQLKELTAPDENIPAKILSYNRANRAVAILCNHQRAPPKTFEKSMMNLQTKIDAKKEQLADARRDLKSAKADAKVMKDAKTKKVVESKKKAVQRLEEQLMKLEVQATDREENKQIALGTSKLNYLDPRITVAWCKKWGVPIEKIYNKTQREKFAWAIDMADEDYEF

[17] = read-out: MIC Range High, Acinetobacter baumannii (12 strains)
[18] = read-out: MIC Range Low, Acinetobacter baumannii (12 strains)
[19] = read-out: MIC Range Low, Staphylococcus aureus (16 strains)
[20] = read-out: MIC Range High, Enterococcus faecalis (5 strains)
[21] = read-out: MIC Range Low, Enterococcus faecalis (5 strains)
[22] = read-out: MIC Range High, Burkholderia cepacia (5 strains)
[23] = read-out: MIC Range Low, Burkholderia cepacia (5 strains)
[24] = read-out: MIC Range High, Escherichia coli (6 strains)
[25] = read-out: MIC Range Low, Escherichia coli (6 strains)
[26] = High of the strain panel, read-out: MIC Range High, Haemophilus influenza (5 strains)
[27] = Low of the strain panel, read-out: MIC Range Low, Haemophilus influenza (5 strains)
[28] = read-out: MIC Range High, Group C Streptococcus (4 strains)
[29] = read-out: MIC Range Low, Group C Streptococcus (4 strains)
[30] = read-out: MIC Range High, Streptococcus pyogenes (4 strains)
[31] = read-out: MIC Range Low, Streptococcus pyogenes (4 strains)
[32] = read-out: MIC Range High, Pseudomonas aeruginosa (12 strains)
[33] = read-out: MIC Range Low, Pseudomonas aeruginosa (12 strains)
[34] = read-out: MIC Range High, Klebsiella pneumonia (4 strains)
[35] = read-out: MIC Range Low, Klebsiella pneumonia (4 strains)

Sequence of bacterial topoisomerase IV (P20083 whole entry): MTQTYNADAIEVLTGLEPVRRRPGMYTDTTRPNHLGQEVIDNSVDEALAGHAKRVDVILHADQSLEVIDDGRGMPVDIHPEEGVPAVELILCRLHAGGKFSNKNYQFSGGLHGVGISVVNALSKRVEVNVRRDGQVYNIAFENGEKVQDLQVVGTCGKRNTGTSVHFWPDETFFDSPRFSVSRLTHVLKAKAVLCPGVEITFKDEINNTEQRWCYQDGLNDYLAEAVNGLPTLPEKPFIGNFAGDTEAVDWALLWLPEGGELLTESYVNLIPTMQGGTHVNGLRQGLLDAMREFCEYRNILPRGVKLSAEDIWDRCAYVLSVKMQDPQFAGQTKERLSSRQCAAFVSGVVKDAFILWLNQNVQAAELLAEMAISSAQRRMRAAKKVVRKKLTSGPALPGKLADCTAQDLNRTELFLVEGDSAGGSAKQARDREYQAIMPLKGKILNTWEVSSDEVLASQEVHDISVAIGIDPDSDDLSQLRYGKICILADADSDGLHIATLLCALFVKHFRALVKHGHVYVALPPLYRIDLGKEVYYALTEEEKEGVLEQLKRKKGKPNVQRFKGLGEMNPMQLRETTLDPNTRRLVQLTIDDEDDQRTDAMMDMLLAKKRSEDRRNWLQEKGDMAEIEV
Sequence of bacterial topoisomerase IV (P0AFI2 whole entry): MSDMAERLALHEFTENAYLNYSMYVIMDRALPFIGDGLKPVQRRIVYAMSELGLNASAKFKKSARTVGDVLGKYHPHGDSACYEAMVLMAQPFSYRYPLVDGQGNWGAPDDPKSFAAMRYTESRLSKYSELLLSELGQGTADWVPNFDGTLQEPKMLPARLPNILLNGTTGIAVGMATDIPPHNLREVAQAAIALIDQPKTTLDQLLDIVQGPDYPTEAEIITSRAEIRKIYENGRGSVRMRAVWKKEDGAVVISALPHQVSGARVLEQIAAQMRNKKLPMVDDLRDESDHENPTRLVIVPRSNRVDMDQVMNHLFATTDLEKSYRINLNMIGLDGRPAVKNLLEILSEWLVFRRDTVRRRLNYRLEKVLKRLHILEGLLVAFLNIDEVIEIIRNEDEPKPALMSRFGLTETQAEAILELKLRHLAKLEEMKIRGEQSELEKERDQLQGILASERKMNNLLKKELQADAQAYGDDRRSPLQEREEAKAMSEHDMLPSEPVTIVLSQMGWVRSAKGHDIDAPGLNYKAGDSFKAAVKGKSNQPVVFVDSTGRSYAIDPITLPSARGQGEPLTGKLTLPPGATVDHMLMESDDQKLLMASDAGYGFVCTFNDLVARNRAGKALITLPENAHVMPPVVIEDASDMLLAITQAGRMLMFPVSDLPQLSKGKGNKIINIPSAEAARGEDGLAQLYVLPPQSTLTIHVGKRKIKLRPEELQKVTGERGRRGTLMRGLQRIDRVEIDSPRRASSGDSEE
Sequence of bacterial gyrase (P0AES4 whole entry, one chain of several): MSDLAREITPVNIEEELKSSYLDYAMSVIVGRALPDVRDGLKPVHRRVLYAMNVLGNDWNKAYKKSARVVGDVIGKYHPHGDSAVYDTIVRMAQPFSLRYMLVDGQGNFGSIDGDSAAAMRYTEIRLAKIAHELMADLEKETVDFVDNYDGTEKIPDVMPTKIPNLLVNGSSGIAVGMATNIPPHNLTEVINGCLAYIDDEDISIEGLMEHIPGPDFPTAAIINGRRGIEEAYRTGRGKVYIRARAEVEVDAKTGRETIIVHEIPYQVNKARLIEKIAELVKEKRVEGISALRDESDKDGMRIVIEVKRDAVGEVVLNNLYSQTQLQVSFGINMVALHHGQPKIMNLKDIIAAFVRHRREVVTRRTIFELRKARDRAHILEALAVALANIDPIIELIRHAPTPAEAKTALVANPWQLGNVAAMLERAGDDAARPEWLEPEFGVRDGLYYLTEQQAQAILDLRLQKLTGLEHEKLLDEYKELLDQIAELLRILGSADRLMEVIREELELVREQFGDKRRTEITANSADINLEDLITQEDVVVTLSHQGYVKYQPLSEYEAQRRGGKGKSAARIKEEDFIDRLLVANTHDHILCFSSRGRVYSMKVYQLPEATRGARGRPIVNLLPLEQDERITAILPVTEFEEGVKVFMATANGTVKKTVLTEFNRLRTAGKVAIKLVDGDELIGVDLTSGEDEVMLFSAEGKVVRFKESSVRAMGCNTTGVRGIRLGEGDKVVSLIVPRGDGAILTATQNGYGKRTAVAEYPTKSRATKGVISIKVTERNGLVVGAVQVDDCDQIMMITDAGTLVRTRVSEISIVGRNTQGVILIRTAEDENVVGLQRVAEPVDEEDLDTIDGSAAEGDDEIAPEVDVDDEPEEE

Structure (SMILES): Cc1c(-c2ccc(N)nc2)ccn2c(=O)c(C(=O)[O-])cc(C3CC3)c12.[K+] [Example 21 K salt, potassium 8-(6-amino-pyridin-3-yl)-1-cyclopropyl-9-methyl-4-oxo-4H-quinolizine-3-carboxylate]
- MIC [1, 17]: 16 µg/mL
- MIC [1, 18]: 0.03 µg/mL
- MIC50 [1]: 4 µg/mL
- MIC [2]: 4 µg/mL
- MIC [3, 19]: ≤ 0.015 µg/mL
- MIC50 [3]: 0.25 µg/mL
- MIC [4, 20]: 2 µg/mL
- MIC [4, 21]: 0.03 µg/mL
- MIC50 [4]: 0.12 µg/mL
- MIC [5, 22]: 0.25 µg/mL
- MIC [5, 23]: 0.12 µg/mL
- MIC50 [5]: 0.25 µg/mL
- MIC [6, 24]: 32 µg/mL
- MIC [6, 25]: ≤ 0.015 µg/mL
- MIC50 [6]: 16 µg/mL
- MIC [7]: 0.06 µg/mL
- MIC50 [7]: 0.06 µg/mL
- IC50 (bacterial gyrase): ≤ 1.49 µM
- MIC50 [8]: ≤ 0.015 µg/mL
- MIC [8, 26]: ≤ 0.015 µg/mL
- MIC [8, 27]: ≤ 0.015 µg/mL
- Log reduction (LgR) from vehicle control (CFU/g) ([9]; E. coli ATCC 25922, mouse thigh, 30 mg/kg TDS p.o.): 3.13
- Log reduction (LgR) from vehicle control (CFU/g) ([9]; MRSA ATCC 43300, mouse thigh, 30 mg/kg TDS p.o.): 4.93
- IC50 [10]: ≤ 2.33 µM
- MIC [11, 28]: 0.06 µg/mL
- MIC [11, 29]: 0.03 µg/mL
- MIC50 [11]: 0.03 µg/mL
- MIC [12, 30]: 0.12 µg/mL
- MIC [12, 31]: 0.06 µg/mL
- MIC50 [12]: 0.06 µg/mL
- Mean Parent Remaining ([13]; Liver microsomes + S9, human): 93%
- Mean Parent Remaining ([13]; Liver microsomes + S9, mouse): 97%
- Mean Parent Remaining ([13]; Liver microsomes, human): 85%
- Mean Parent Remaining ([13]; Liver microsomes, mouse): 87%
- MIC [14, 32]: 32 µg/mL
- MIC [14, 33]: 0.5 µg/mL
- MIC50 [14]: 8 µg/mL
- solubility at 24 h (physchem; fassgf or other biorelevant): 200 µM
- solubility at 24 h (physchem; pH 7.4, aqueous buffer): 200 µM
- solubility at 24 h (physchem; simulated gastric fluid): 200 µM
- MIC [15, 34]: 32 µg/mL
- MIC [15, 35]: 0.06 µg/mL
- MIC50 [15]: 9 µg/mL
- MIC [16]: 0.25 µg/mL
- MIC50 [16]: 1 µg/mL

Structure (SMILES): Cc1c(-c2cc(F)c(N)cc2F)ccn2c(=O)c(C(=O)[O-])cc(C3CC3)c12.[K+] [Example 28 K salt, potassium 8-(4-amino-2,5-difluoro-phenyl)-1-cyclopropyl-9-methyl-4-oxo-4H-quinolizine-3-carboxylate]
- MIC [1, 17]: 16 µg/mL
- MIC [1, 18]: 0.06 µg/mL
- MIC50 [1]: 8 µg/mL
- MIC [2]: 2 µg/mL
- MIC ([3]; read-out: MIC Range High, Staphylococcus aureus (16 strains)): 0.12 µg/mL
- MIC [3, 19]: ≤ 0.015 µg/mL
- MIC50 [3]: 0.06 µg/mL
- MIC [4, 20]: 0.5 µg/mL
- MIC [4, 21]: ≤ 0.015 µg/mL
- MIC50 [4]: 0.25 µg/mL
- MIC [5, 22]: 0.5 µg/mL
- MIC [5, 23]: 0.12 µg/mL
- MIC50 [5]: 0.25 µg/mL
- MIC [6, 24]: 32 µg/mL
- MIC [6, 25]: 0.03 µg/mL
- MIC50 [6]: 16 µg/mL
- MIC [7]: 0.03 µg/mL
- MIC50 [7]: 0.06 µg/mL
- IC50 (human topoisomerase I): 135 µM
- IC50 (bacterial gyrase): 0.68 µM
- MIC50 [8]: ≤ 0.015 µg/mL
- MIC [8, 26]: ≤ 0.015 µg/mL
- MIC [8, 27]: ≤ 0.015 µg/mL
- IC50 [10]: ≤ 8.45 µM
- MIC [11, 28]: 0.06 µg/mL
- MIC [11, 29]: 0.03 µg/mL
- MIC50 [11]: 0.045 µg/mL
- MIC [12, 30]: 0.06 µg/mL
- MIC [12, 31]: 0.03 µg/mL
- MIC50 [12]: 0.06 µg/mL
- Mean Parent Remaining ([13]; Liver microsomes + S9, human): 93%
- Mean Parent Remaining ([13]; Liver microsomes + S9, mouse): 48%
- Mean Parent Remaining ([13]; Liver microsomes, human): 97%
- Mean Parent Remaining ([13]; Liver microsomes, mouse): 30%
- MIC [14, 32]: > 32 µg/mL
- MIC [14, 33]: 1 µg/mL
- MIC50 [14]: 6 µg/mL
- solubility at 24 h (physchem; fassgf or other biorelevant): 153 µM
- solubility at 24 h (physchem; pH 7.4, aqueous buffer): 6 µM
- solubility at 24 h (physchem; simulated gastric fluid): 12 µM
- MIC [15, 34]: > 32 µg/mL
- MIC [15, 35]: 0.12 µg/mL
- MIC50 [15]: 18 µg/mL
- MIC [16]: 0.12 µg/mL
- MIC50 [16]: 0.25 µg/mL

Structure (SMILES): O=C(O)c1cn(C2CC2)c2cc(N3CCNCC3)c(F)cc2c1=O [Ciprofloxacin, reference compound]
- IC50 (human topoisomerase I): > 150 µM
- Log reduction (LgR) from vehicle control (CFU/g) ([9]; MRSA ATCC 43300, mouse thigh, 20 mg/kg i.v. TDS): 2.36
